Molecular target: CBP (Homo sapiens (Human), UniProt Q92793)
Experiment: CBP TR-FRET binding assay;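 further: displacement of a biotinylated small-molecule ligand from purified recombinant CBP read by TR-FRET, DMSO-only wells as control, IC50 from nonlinear curve fit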
Conditions: His/Flag tagged CBP 4 nM, biotin-ligand 60 nM; read-out: CBP HTRF IC50
Experimental: IC50 Measurements for Inhibitors Using CBP TR FRET Binding Assay
His/Flag epitope tagged CBP was cloned, expressed, and purified to homogeneity. CBP binding and inhibition was assessed by monitoring the engagement of a biotinylated small molecule compound with the target using the TR-FRET assay technology (Perkin-Elmer). Specifically, in a 384 well ProxiPlate CBP (4 nM final) was combined with biotin-ligand (60 nM final) in 50 mM HEPES (pH 7.5), 50 mM NaCl, 1 mM TCEP, 0.01% (w/v) BSA, and 0.008% (w/v) Brij-35 either in the presence of DMSO (final 0.2% DMSO) or compound dilution series in DMSO. […] After twenty minutes of equilibration, the plates were read on an Envision instrument and IC50S calculated using a four parameter non-linear curve fit.

Sequence of CBP (Q92793 whole entry): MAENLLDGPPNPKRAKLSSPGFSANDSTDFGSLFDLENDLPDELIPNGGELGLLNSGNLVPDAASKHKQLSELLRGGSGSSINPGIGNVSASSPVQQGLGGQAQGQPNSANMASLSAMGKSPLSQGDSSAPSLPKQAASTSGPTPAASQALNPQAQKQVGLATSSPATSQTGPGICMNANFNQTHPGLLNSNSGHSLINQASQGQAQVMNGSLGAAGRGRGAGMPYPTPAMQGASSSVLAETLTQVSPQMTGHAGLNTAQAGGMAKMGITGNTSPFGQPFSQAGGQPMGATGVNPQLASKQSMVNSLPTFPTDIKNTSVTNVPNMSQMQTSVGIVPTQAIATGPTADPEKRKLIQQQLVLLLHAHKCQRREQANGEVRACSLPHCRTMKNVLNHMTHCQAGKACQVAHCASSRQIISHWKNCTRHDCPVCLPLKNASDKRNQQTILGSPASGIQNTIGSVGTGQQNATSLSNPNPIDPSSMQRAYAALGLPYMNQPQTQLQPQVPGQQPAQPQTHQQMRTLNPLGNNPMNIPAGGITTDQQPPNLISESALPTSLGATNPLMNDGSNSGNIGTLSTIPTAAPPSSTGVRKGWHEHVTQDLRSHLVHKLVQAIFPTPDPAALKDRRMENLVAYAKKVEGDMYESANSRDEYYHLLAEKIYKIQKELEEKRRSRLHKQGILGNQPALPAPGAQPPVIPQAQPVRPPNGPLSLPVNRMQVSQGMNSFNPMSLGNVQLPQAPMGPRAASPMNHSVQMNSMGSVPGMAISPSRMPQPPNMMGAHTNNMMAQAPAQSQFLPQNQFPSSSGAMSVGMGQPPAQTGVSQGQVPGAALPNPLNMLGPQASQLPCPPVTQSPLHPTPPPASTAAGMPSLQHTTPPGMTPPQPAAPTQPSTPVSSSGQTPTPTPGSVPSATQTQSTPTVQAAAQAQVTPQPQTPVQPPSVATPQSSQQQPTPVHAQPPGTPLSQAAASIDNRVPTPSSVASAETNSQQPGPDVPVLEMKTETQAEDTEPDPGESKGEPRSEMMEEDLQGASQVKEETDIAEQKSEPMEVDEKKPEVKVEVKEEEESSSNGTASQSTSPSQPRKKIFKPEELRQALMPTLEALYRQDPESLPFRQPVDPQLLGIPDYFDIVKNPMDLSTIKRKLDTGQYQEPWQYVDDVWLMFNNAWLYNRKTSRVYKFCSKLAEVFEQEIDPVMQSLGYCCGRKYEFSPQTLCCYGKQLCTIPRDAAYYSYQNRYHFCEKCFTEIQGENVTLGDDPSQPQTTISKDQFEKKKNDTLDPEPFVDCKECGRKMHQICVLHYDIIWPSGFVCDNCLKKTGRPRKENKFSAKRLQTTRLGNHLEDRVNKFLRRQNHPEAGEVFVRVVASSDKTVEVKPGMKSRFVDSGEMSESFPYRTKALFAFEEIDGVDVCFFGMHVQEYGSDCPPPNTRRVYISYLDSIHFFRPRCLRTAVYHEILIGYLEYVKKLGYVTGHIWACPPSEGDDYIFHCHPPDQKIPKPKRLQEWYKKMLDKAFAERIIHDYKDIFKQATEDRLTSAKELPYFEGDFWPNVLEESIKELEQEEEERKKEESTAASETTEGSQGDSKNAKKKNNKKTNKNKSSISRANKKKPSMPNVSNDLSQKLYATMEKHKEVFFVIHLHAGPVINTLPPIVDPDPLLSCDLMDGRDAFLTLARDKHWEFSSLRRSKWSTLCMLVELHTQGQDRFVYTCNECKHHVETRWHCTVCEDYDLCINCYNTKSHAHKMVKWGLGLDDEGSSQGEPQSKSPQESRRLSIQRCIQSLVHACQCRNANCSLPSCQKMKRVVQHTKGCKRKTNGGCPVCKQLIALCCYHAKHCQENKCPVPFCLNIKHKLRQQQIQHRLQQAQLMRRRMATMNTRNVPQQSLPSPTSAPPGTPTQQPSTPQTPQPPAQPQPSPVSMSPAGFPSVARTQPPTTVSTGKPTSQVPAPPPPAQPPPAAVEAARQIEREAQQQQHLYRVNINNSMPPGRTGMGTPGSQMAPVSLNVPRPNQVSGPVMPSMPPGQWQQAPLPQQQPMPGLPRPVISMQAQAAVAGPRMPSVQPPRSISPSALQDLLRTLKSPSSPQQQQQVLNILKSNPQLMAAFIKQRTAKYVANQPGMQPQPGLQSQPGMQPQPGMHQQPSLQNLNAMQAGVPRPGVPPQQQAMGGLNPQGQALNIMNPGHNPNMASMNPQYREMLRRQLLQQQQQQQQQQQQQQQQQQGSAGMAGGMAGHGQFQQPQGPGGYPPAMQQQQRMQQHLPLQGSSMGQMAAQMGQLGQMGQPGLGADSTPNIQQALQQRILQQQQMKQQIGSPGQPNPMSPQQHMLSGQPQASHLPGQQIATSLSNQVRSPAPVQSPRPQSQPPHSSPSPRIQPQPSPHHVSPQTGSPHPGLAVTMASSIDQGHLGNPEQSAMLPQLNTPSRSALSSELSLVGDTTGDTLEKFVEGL

Row | SMILES | IC50
1 | CNC(=O)N1CCOc2ccc(-c3nccc4ccccc34)cc2C1 [Example 1, 7-(isoquinolin-1-yl)-N-methyl-2,3-dihydrobenzo[f][1,4]oxazepine-4(5H)-carboxamide] | 187 nM
2 | CNC(=O)N1CCOc2ccc(-c3nc(N)cc4cnccc34)cc2C1 [Example 2] | 321 nM
3 | CNC(=O)N1CCOc2ccc(-c3c(C)ccc4c3cnn4C)cc2C1 [Example 3, 7-(1,5-dimethylindazol-4-yl)-N-methyl-3,5-dihydro-2H-1,4-benzoxazepine-4-carboxamide] | 57 nM
4 | CNC(=O)N1CCOc2ccc(-c3ccnc4ccccc34)cc2C1 [Example 4] | 193 nM
5 | CNC(=O)N1CCOc2ccc(-c3cccc4nn(C)cc34)cc2C1 [Example 5] | 296 nM
6 | CNC(=O)N1CCOc2ccc(-c3cccc4ncccc34)cc2C1 [Example 6] | 362 nM
7 | CNC(=O)N1CCOc2ccc(-c3cc(C)ccc3C)cc2C1 [Example 7] | 273 nM
8 | CNC(=O)N1CCOc2ccc(-c3cccc4cnn(C)c34)cc2C1 [Example 8] | 394 nM
9 | CNC(=O)N1CCOc2ccc(-c3c(C)ccc4[nH]ncc34)cc2C1 [Example 9] | 78 nM
10 | CNC(=O)N1CCOc2ccc(-c3cccc4c3cnn4C)cc2C1 [Example 10] | 96 nM
11 | CNC(=O)N1CCOc2ccc(-c3cncc4ccccc34)cc2C1 [Example 11] | 281 nM
12 | CNC(=O)N1CCOc2ccc(-c3c(F)ccc4[nH]ccc34)cc2C1 [Example 12] | 59 nM
13 | CNC(=O)N1CCOc2ccc(-c3ccc4[nH]ccc4c3)cc2C1 [Example 13] | 267 nM
14 | CNC(=O)N1CCOc2ccc(-c3cccc4[nH]ncc34)cc2C1 [Example 14] | 102 nM
15 | CNC(=O)N1CCOc2ccc(-c3cccc4cn[nH]c34)cc2C1 [Example 15] | 391 nM
16 | CN1C(=O)CCc2ccc(N3CCCc4cc(-c5cnn(C)c5)c(C(F)F)cc43)cc21 [Example 19] | 33 nM
17 | CN1C(=O)C(C)(C)c2ccc(N3CCCc4cc(-c5cnn(C)c5)c(C(F)F)cc43)cc21 [Example 20] | 1750 nM
18 | Cn1cc(-c2cc3c(cc2C(F)F)N(c2ccc4c(c2)sc(=O)n4C)CCC3)cn1 [Example 22] | 1690 nM
19 | Cn1cc(-c2ccc3c(c2)CCCN3c2ccc3sc(=O)n(C)c3c2)cn1 [Example 23] | 317 nM
20 | Cn1cc(-c2cc3c(cc2C(F)F)N(c2cc4c(cn2)n(C)c(=O)n4C)CCC3)cn1 [Example 24] | 106 nM
21 | Cn1cc(-c2cc3c(cc2C(F)F)N(c2cnc4c(c2)n(C)c(=O)n4C)CCC3)cn1 [Example 25] | 38 nM
22 | Cn1cc(-c2cc3c(cc2C(F)F)N(c2ccc4c(n2)n(C)c(=O)n4C)CCC3)cn1 [Example 26] | 2280 nM
23 | CNC(=O)c1ccc2nccc(N3CCCc4cc(-c5cnn(C)c5)c(C(F)F)cc43)c2c1 [Example 27, 4-[7-(difluoromethyl)-6-(1-methylpyrazol-4-yl)-3,4-dihydro-2H-quinolin-1-yl]-N-methyl-quinoline-6-carboxamide] | 34 nM
24 | COC(=O)c1ccc2nccc(N3CCCc4cc(-c5cnn(C)c5)ccc43)c2c1 [Example 28] | 199 nM
25 | CNC(=O)c1ccc2nccc(N3CCCc4cc(-c5cnn(C)c5)ccc43)c2c1 [Example 29] | 160 nM
26 | CNC(=O)c1cnn2ccc(N3CCCc4cc(-c5cnn(C)c5)c(C(F)F)cc43)cc12 [Example 30] | 543 nM
27 | CCn1c(=O)n(C)c2cc(N3CCCc4cc(-c5cnn(C)c5)c(C(F)F)cc43)ccc21 [Example 31, 5-[7-(difluoromethyl)-6-(1-methylpyrazol-4-yl)-3,4-dihydro-2H-quinolin-1-yl]-1-ethyl-3-methyl-benzimidazol-2-one] | 172 nM
28 | CCn1cc(C(=O)NC)c2cc(N3CCCc4cc(-c5cnn(C)c5)c(C(F)F)cc43)ccc21 [Example 51] | 27 nM

The next lines start with the values.

Row | IC50 | SMILES
29 | 42 nM | CC1C(=O)N(C)c2cc(N3CCCc4cc(-c5cnn(C)c5)c(C(F)F)cc43)ccc21 (stereo in doubt) [Example 92, (R)-6-[7-(difluoromethyl)-6-(1-methylpyrazol-4-yl)-3,4-dihydro-2H-quinolin-1-yl]-1,3-dimethyl-indolin-2-one]
30 | 95 nM | CC1C(=O)N(C)c2cc(N3CCCc4cc(-c5cnn(C)c5)c(C(F)F)cc43)ccc21 (stereo in doubt) [Example 93, (S)-6-[7-(difluoromethyl)-6-(1-methylpyrazol-4-yl)-3,4-dihydro-2H-quinolin-1-yl]-1,3-dimethyl-indolin-2-one]
31 | 48 nM | CCn1c(=O)n(C)c2ccc(N3CCCc4cc(-c5cnn(C)c5)c(C(F)F)cc43)cc21 [Example 32]
32 | 16 nM | Cn1cc(-c2cc3c(cc2C(F)F)N(c2cc(C4CC4)c4c(c2)n(C)c(=O)n4C)CCC3)cn1 [Example 38]
33 | 19 nM | CNc1cc(N2CCCc3cc(-c4cnn(C)c4)c(C(F)F)cc32)cc2c1n(C)c(=O)n2C [Example 42]
34 | 26 nM | Cn1cc(-c2cc3c(cc2C(F)F)N(c2cc(N4CCCCC4)c4c(c2)n(C)c(=O)n4C)CCC3)cn1 [Example 44]
35 | 22 nM | CNC(=O)c1cn(C)c2ccc(-c3cccc4cc(-c5cnn(C)c5)ncc34)cc12 [Example 49]
36 | 48 nM | CNC(=O)c1c[nH]c2ccc(N3CCCc4cc(-c5cnn(C)c5)ccc43)cc12 [Example 53]
37 | 26 nM | CNC(=O)c1cn(C)c2cnc(N3CCCc4cc(-c5cnn(C)c5)c(C(F)F)cc43)nc12 [Example 61]
38 | 18 nM | CNC(=O)c1c[nH]c2cnc(N3CCCc4cc(-c5cnn(C)c5)c(C(F)F)cc43)nc12 [Example 70]
39 | 187 nM | CNC(=O)c1n[nH]c2ccc(N3CCCc4cc(-c5cnn(C)c5)c(C(F)F)cc43)nc12 [Example 71]
40 | 110 nM | CNC(=O)c1cnc2ccc(N3CCCc4cc(-c5cnn(C)c5)c(C(F)F)cc43)nn12 [Example 72, 6-(7-(difluoromethyl)-6-(1-methyl-1H-pyrazol-4-yl)-3,4-dihydroquinolin-1(2H)-yl)-N-methylimidazo[1,2-b]pyridazine-3-carboxamide]
41 | 80 nM | CNC(=O)c1coc2ccc(N3CCCc4cc(-c5cnn(C)c5)c(C(F)F)cc43)cc12 [Example 73, 5-(7-(difluoromethyl)-6-(1-methyl-1H-pyrazol-4-yl)-3,4-dihydroquinolin-1(2H)-yl)-N-methylbenzofuran-3-carboxamide]
42 | 108 nM | Cn1cc(-c2cc3c(cc2C(F)F)N(c2cnc4[nH]cc(-c5cnn(C)c5)c4n2)CCC3)cn1 [Example 74, 7-(difluoromethyl)-6-(1-methyl-1H-pyrazol-4-yl)-1-(7-(1-methyl-1H-pyrazol-4-yl)-5H-pyrrolo[2,3-b]pyrazin-2-yl)-1,2,3,4-tetrahydroquinoline]
43 | 244 nM | Cn1cc(-c2ccc3c(c2)CCCN3c2cnc3[nH]cc(-c4cnn(C)c4)c3n2)cn1 [Example 75, 6-(1-methyl-1H-pyrazol-4-yl)-1-(7-(1-methyl-1H-pyrazol-4-yl)-5H-pyrrolo[2,3-b]pyrazin-2-yl)-1,2,3,4-tetrahydroquinoline]
44 | 243 nM | CNC(=O)N1CCOc2ccc(-c3c(C)ccc(-c4cnn(C)c4)c3C(F)F)cc2C1 [Example 76, 7-(2-(difluoromethyl)-6-methyl-3-(1-methyl-1H-pyrazol-4-yl)phenyl)-N-methyl-2,3-dihydrobenzo[f][1,4]oxazepine-4(5H)-carboxamide]
45 | 187 nM | CNC(=O)N1CCOc2ccc(-c3cccc(-c4cnn(C)c4)c3C(F)F)cc2C1 [Example 77, 7-(2-(difluoromethyl)-3-(1-methyl-1H-pyrazol-4-yl)phenyl)-N-methyl-2,3-dihydrobenzo[f][1,4]oxazepine-4(5H)-carboxamide]
46 | 77 nM | CCC(=O)N1CCOc2ccc(N3CCCc4cc(-c5cnn(C)c5)ccc43)cc2C1 [Example 79, 1-(7-(6-(1-methyl-1H-pyrazol-4-yl)-3,4-dihydroquinolin-1(2H)-yl)-2,3-dihydrobenzo[f][1,4]oxazepin-4(5H)-yl)propan-1-one]
47 | 325 nM | C[C@H]1Nc2c(cccc2N2CCCc3cc(-c4cnn(C)c4)ccc32)NC1=O [Example 82, (R)-3-methyl-5-(6-(1-methyl-1H-pyrazol-4-yl)-3,4-dihydroquinolin-1(2H)-yl)-3,4-dihydroquinoxalin-2(1H)-one]
48 | 87 nM | CNC(=O)c1ccc2c(c1)c(N1CCCc3cc(-c4cnn(C)c4)ccc31)nn2C1CCOCC1 [Example 84]
49 | 450 nM | CNC(=O)N1CCN(C)c2ccc(-c3ccccc3C)cc2C1 [Example 85, N,1-dimethyl-7-(o-tolyl)-3,5-dihydro-2H-1,4-benzodiazepine-4-carboxamide]
50 | 81 nM | CNC(=O)N1CCOc2ccc(-c3cccc4nc(-c5ccc(OC)cc5)cn34)cc2C1 [Example 86, 7-[2-(4-methoxyphenyl)imidazo[1,2-a]pyridin-5-yl]-N-methyl-3,5-dihydro-2H-1,4-benzoxazepine-4-carboxamide]
51 | 429 nM | CC(=O)N1CCCc2cc(N3CCCc4cc(-c5cnn(C)c5)c(C(F)F)cc43)ccc21 [Example 87, 1-[6-[7-(difluoromethyl)-6-(1-methylpyrazol-4-yl)-3,4-dihydro-2H-quinolin-1-yl]-3,4-dihydro-2H-quinolin-1-yl]ethanone]
52 | 258 nM | CC(=O)N1CCc2c(cc(-c3cccc4cc(-c5cnn(C)c5)ncc34)c(=O)n2C)C1 [Example 88, 6-acetyl-1-methyl-3-[3-(1-methylpyrazol-4-yl)-8-isoquinolyl]-7,8-dihydro-5H-1,6-naphthyridin-2-one]
53 | 78 nM | CN1C(=O)C(=O)c2ccc(N3CCCc4cc(-c5cnn(C)c5)c(C(F)F)cc43)cc21 [Example 89, 6-[7-(difluoromethyl)-6-(1-methylpyrazol-4-yl)-3,4-dihydro-2H-quinolin-1-yl]-1-methyl-indoline-2,3-dione]
54 | 481 nM | Cn1cc(-c2cc3c(cc2C(F)F)N(c2ccc4oc(=O)n(C)c4c2)CCC3)cn1 [Example 91, 5-[7-(difluoromethyl)-6-(1-methylpyrazol-4-yl)-3,4-dihydro-2H-quinolin-1-yl]-3-methyl-1,3-benzoxazol-2-one]
55 | 90 nM | Cn1cc(-c2cc3cccc(-c4ccc5c(c4)n(C)c(=O)n5C)c3cn2)cn1 [Example 94, 1,3-dimethyl-5-(3-(1-methyl-1H-pyrazol-4-yl)isoquinolin-8-yl)-1H-benzo[d]imidazol-2(3H)-one]

Reference: patent US10696655B2, “Therapeutic compounds and uses thereof” (GENENTECH, INC., priority 2017, dated 2020)
